The NIST ThermoML archive (doi:10.1021/acs.jced.5b00849)
“And” between values parts separate entries of the source, which are not always exact repeats. Equal entries are not always repeated. Numbers after ± are expanded uncertainties.

Key:
[1] = refractive index (Na D-line) (dimensionless); details: 101 kPa, Liquid, Standard Abbe refractometry
[2] = Liquid, Ebulliometric method (Recirculating still)
[3] = Boiling temperature at pressure P; details: Liquid, Ebulliometric method (Recirculating still)
[4] = refractive index (Na D-line) (dimensionless); xn = mol fraction of the nth substance listed; details: 101 kPa, Liquid, Standard Abbe refractometry

In the case of `CC1CCC(=O)O1` (stereo not given) [γ-valerolactone], the refractive index ([1]; 293.2 K) is reported as 1.4339 ± 0.0004, the refractive index ([1]; 298.2 K) is reported as 1.4316 ± 0.0004 and the “vapor or sublimation pressure” value ([2]; 347.1 K) is reported as 0.67 kPa. For the same molecule, the “vapor or sublimation pressure” value ([2]; 356 K) was 1.33 kPa, the “vapor or sublimation pressure” value ([2]; 370.4 K) was 2.67 ± 4 kPa and the “vapor or sublimation pressure” value ([2]; 384.5 K) was 5.07 ± 4 kPa. The “vapor or sublimation pressure” value ([2]; 401.4 K) was 10.1 ± 4 kPa and 10.13 ± 4 kPa, the “vapor or sublimation pressure” value ([2]; 416.4 K) was 17.33 ± 4 kPa and the “vapor or sublimation pressure” value ([2]; 426.5 K) was 24 ± 4 kPa. The “vapor or sublimation pressure” value ([2]; 435.3 K) was 31.6 ± 4 kPa, the “vapor or sublimation pressure” value ([2]; 442.7 K) was 39.46 ± 4 kPa and the “vapor or sublimation pressure” value ([2]; 451.5 K) was 50.6 ± 4 kPa and 50.66 ± 4 kPa. The “vapor or sublimation pressure” value ([2]; 459.2 K) was 62.26 ± 4 kPa, the “vapor or sublimation pressure” value ([2]; 465.3 K) was 73.06 ± 4 kPa and the “vapor or sublimation pressure” value ([2]; 469 K) was 80.53 ± 4 kPa. For the same molecule, the “vapor or sublimation pressure” value ([2]; 477.8 K) was 101.19 ± 4 kPa and the “vapor or sublimation pressure” value ([2]; 480.2 K) was 101.33 ± 4 kPa.
For `CO` [methanol], the “Boiling temperature at pressure P” value ([3]; 40 kPa) was 42.6 ± 2.8 °C, the “Boiling temperature at pressure P” value ([3]; 46.66 kPa) was 46 ± 2.6 °C and the “Boiling temperature at pressure P” value ([3]; 58.8 kPa) was 51.2 ± 2.3 °C. For the same molecule, the “Boiling temperature at pressure P” value ([3]; 67.59 kPa) was 54.4 ± 2.1 °C and the “Boiling temperature at pressure P” value ([3]; 76.13 kPa) was 57.5 ± 2.1 °C.
`CC1CCC(=O)O1` (stereo not given) [γ-valerolactone] + O gave a refractive index ([4]; 293.2 K, x1 = 0.0158) of 1.342 ± 0.0004, a refractive index ([4]; 293.2 K, x1 = 0.0318) of 1.3505 ± 0.0004 and a refractive index ([4]; 293.2 K, x1 = 0.0532) of 1.3591 ± 0.0004. It also gave a refractive index ([4]; 293.2 K, x1 = 0.0789) of 1.3682 ± 0.0004, a refractive index ([4]; 293.2 K, x1 = 0.1066) of 1.3761 ± 0.0004 and a refractive index ([4]; 293.2 K, x1 = 0.1405) of 1.3837 ± 0.0004. It also gave a refractive index ([4]; 293.2 K, x1 = 0.1855) of 1.3913 ± 0.0004, a refractive index ([4]; 293.2 K, x1 = 0.2295) of 1.3987 ± 0.0004 and a refractive index ([4]; 293.2 K, x1 = 0.2964) of 1.4062 ± 0.0004. For the same molecule, the refractive index ([4]; 293.2 K, x1 = 0.3833) was 1.4135 ± 0.0004, the refractive index ([4]; 293.2 K, x1 = 0.5097) was 1.4204 ± 0.0004 and the refractive index ([4]; 293.2 K, x1 = 0.7092) was 1.4273 ± 0.0004. The refractive index ([4]; 293.2 K, x1 = 1) was 1.4339 ± 0.0004, the refractive index ([4]; 298.2 K, x1 = 0.0158) was 1.3411 ± 0.0004 and the refractive index ([4]; 298.2 K, x1 = 0.0318) was 1.3499 ± 0.0004. It also gave a refractive index ([4]; 298.2 K, x1 = 0.0532) of 1.3585 ± 0.0004, a refractive index ([4]; 298.2 K, x1 = 0.0789) of 1.3671 ± 0.0004 and a refractive index ([4]; 298.2 K, x1 = 0.1066) of 1.3751 ± 0.0004. It also gave a refractive index ([4]; 298.2 K, x1 = 0.1405) of 1.3826 ± 0.0004, a refractive index ([4]; 298.2 K, x1 = 0.1855) of 1.39 ± 0.0004 and a refractive index ([4]; 298.2 K, x1 = 0.2295) of 1.397 ± 0.0004. The refractive index ([4]; 298.2 K, x1 = 0.2964) was 1.4046 ± 0.0004, the refractive index ([4]; 298.2 K, x1 = 0.3833) was 1.4119 ± 0.0004 and the refractive index ([4]; 298.2 K, x1 = 0.5097) was 1.4186 ± 0.0004. It also gave a refractive index ([4]; 298.2 K, x1 = 0.7092) of 1.4259 ± 0.0004 and a refractive index ([4]; 298.2 K, x1 = 1) of 1.4316 ± 0.0004.
For `O` [water], the refractive index ([1]; 293.2 K) was 1.3332 ± 0.0004, the refractive index ([1]; 298.2 K) was 1.3327 ± 0.0004 and the “vapor or sublimation pressure” value ([2]; 319.6 K) was 10.1 ± 4 kPa. The “vapor or sublimation pressure” value ([2]; 354.8 K) was 50.6 ± 4 kPa and the “vapor or sublimation pressure” value ([2]; 373.2 K) was 101.33 ± 4 kPa.
With `O` [water] + CC1CCC(=O)O1 the refractive index ([4]; 293.2 K, x2 = 0) was 1.3332 ± 0.0004 and the refractive index ([4]; 298.2 K, x2 = 0) was 1.3327 ± 0.0004.
